We go through ten molecules from patent US20190099404A1, “ANALGESIC COMPOUNDS” (ZENO ROYALTIES & MILESTONES, LLC, priority 2016, published 2019).

In the experiment the test system is male ICR mice. Kind of experiment: Formalin Paw Test. The conditions noted are these: 30 mg/kg, intraperitoneal, given 10 minutes before formalin; for Early Phase: early/acute phase (0-10 minutes) after 2% formalin in hind paw; for Late Phase: late/tonic phase (10-35 minutes) after 2% formalin in hind paw. The format is in vivo. The procedure:
One test compound or the vehicle was administered to each mouse in each test group (8 mice per group). Non-fasted male ICR mice weighing 23±3 g were used. Test compounds were administered at a concentration of 30 mg/kg; morphine was administered at a concentration of 10 mg/kg; and acetaminophen was administered at a concentration of >100 mg/kg. The control group received the vehicle (5% DMSO/15% PEG400/10% HPbCD/0.9% Saline). After 10 minutes, a 2% formalin solution (0.02 mL) was injected into one hind paw (sub-plantar) of each mouse. Responses were measured every 5 minutes after the formalin injection for 35 minutes.
The results in Table A are for intraperitoneal administration. In Table A, ‘A’ designates <70 licks/sec, ‘B’ designates ≥70 licks/sec and <165 licks/sec, and ‘C’ designates ≥165 licks/sec.

`Nc1ccc2[nH]cnc2c1` [Compound 1]: the “Early Phase” value was “B (‘B’ designates ≥70 licks/sec and <165 licks/sec)”; the “Late Phase” value is on record as “C (‘C’ designates ≥165 licks/sec)”.
Regarding `Cn1ncc2cc(N)ccc21` [Compound 2], the “Early Phase” value is “A (‘A’ designates <70 licks/sec)”; the “Late Phase” value was “B (‘B’ designates ≥70 licks/sec and <165 licks/sec)”.
With `NCc1cc2ccccn2n1` [Compound 3], the “Early Phase” value is reported as “A (‘A’ designates <70 licks/sec)” and the “Late Phase” value is listed as “C (‘C’ designates ≥165 licks/sec)”.
Regarding `NCc1cc2cc(F)ccc2[nH]1` [Compound 4], the “Early Phase” value is recorded as “A (‘A’ designates <70 licks/sec)” and the “Late Phase” value is “A (‘A’ designates <70 licks/sec)”.
For `NCc1nc2cc(C(F)(F)F)ccc2s1` [Compound 5], the “Early Phase” value was “A (‘A’ designates <70 licks/sec)” and the “Late Phase” value was “A (‘A’ designates <70 licks/sec)”.
Take `Nc1nc2ccc(C(F)(F)F)cc2s1` [Compound 6]: the “Early Phase” value is on record as “A (‘A’ designates <70 licks/sec)” and the “Late Phase” value was “A (‘A’ designates <70 licks/sec)”.
In the case of `NCCc1nc2ccc(F)cc2[nH]1` [Compound 7], the “Early Phase” value was “B (‘B’ designates ≥70 licks/sec and <165 licks/sec)”; the “Late Phase” value was “A (‘A’ designates <70 licks/sec)”.
As for `NCc1nc2cc(F)ccc2[nH]1` [Compound 9], the “Early Phase” value is “A (‘A’ designates <70 licks/sec)” and the “Late Phase” value is “A (‘A’ designates <70 licks/sec)”.
On to `CC(C)(C)c1ccc2nc(N)sc2c1` [Compound 10], for which the “Early Phase” value is reported as “A (‘A’ designates <70 licks/sec)” and the “Late Phase” value was “A (‘A’ designates <70 licks/sec)”.
As for `NCc1ccc2cncn2c1` [Compound 11], the “Early Phase” value is “B (‘B’ designates ≥70 licks/sec and <165 licks/sec)”; the “Late Phase” value is on record as “C (‘C’ designates ≥165 licks/sec)”.
